Here are results for two molecules from ChEMBL document CHEMBL1131431, “Enantiospecific semisynthesis of (+)-almuheptolide-A, a novel natural heptolide inhibitor of the mammalian mitochondrial respiratory chain” (J Med Chem, 1998).

For this test, the target named is Mitochondrial complex I; NADH oxidoreductase (Bos taurus, UniProt P25708+P52505). As to the kind of experiment: Compound was tested for NADH oxidase activity in bovine heart submitochondrial particles. It counts as protein-complex assay.
Sequence of Mitochondrial complex I; NADH oxidoreductase (P25708 21-464 limits assumed, other chains not shown): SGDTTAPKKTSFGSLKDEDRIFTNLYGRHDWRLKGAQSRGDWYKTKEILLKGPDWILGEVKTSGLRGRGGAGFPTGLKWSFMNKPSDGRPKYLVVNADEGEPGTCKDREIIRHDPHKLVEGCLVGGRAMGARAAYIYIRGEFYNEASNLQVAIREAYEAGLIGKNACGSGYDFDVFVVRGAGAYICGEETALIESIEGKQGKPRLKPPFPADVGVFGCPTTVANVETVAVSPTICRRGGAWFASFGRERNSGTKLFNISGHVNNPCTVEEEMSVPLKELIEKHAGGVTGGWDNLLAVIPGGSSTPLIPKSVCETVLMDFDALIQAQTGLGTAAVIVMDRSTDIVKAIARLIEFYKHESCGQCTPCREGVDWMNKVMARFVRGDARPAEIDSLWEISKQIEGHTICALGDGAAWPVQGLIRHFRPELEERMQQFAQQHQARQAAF

In turn, `CCO[C@H]1[C@@H](O)[C@H](O)[C@@H](c2ccccc2)OC(=O)C[C@H]1OCC` came in with an IC50 of 4.4 µM. As to `CCO[C@H]1[C@@H](OC(C)=O)[C@H](OC(C)=O)[C@@H](c2ccccc2)OC(=O)C[C@H]1OCC`, half-maximal inhibition (IC50) required 3.9 µM.

By IC50 is commonly meant the concentration needed to halve the response being measured. Low readings indicate inhibition by little substance, high ones a need for much substance.
